Here are results for two compounds from ChEMBL document CHEMBL1142227, “Structural basis for the high all-trans-retinaldehyde reductase activity of the tumor marker AKR1B10” (Proc Natl Acad Sci U S A, 2007).

In test [1] the target is Aldo-keto reductase family 1 member B10 (Homo sapiens, UniProt O60218). Description: Inhibition of retinaldehyde reductase activity of human AKR1B10.
Test [2] addresses Aldo-keto reductase family 1 member B1 (Rattus norvegicus, UniProt P07943). Description: Inhibition of rat AKR1B4.
The target of test [3] is Aldo-keto reductase family 1 member B1 (Homo sapiens, UniProt P15121). Description: Inhibition of glyceraldehyde reduction activity of human AKR1B1.

Aldo-keto reductase family 1 member B10, sequence (O60218 whole entry): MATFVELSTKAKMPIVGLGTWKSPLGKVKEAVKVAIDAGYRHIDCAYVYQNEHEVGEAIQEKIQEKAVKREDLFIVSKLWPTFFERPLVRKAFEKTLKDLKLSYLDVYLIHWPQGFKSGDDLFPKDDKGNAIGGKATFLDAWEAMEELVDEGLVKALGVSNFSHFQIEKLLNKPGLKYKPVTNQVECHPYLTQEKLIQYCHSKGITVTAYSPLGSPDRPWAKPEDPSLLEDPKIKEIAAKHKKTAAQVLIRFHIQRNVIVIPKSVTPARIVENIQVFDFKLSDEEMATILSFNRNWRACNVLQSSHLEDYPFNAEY

For `COc1ccc2c(C(=S)N(C)CC(=O)O)cccc2c1C(F)(F)F` [TOLRESTAT], the IC50 (as a rule, the concentration that inhibits the measured activity by half) in test [1] worked out at 11.6 nM; in test [2] it was 1000 nM.
In turn, `O=CC(O)CO` (racemic) gave an IC50 in test [3] of 10 nM.
